Data published in the CheMixHub ionic liquid set.

Test: xn = mol fraction of the nth substance listed

CCCC[n+]1ccn(C)c1.[Br-] + N[C@@H](CO)C(=O)O + O
viscosity [mPa·s], 101.3 kPa
Details	293.15 K	298.15 K	303.15 K	308.15 K	313.15 K
x2 = 0, x1 = 0.0007203	–	–	–	–	0.673
x2 = 0.0003632, x1 = 0.00072	1.028	0.917	0.824	0.747	0.681
x2 = 0.0003661, x1 = 0.001439	1.051	0.94	0.847	0.77	0.704
x2 = 0.0007261, x1 = 0.0007198	1.033	0.922	0.829	0.751	0.684
x2 = 0.0007318, x1 = 0.001438	1.056	0.945	0.852	0.773	0.707
x2 = 0.001089, x1 = 0.0007195	1.037	0.927	0.833	0.755	0.688
x2 = 0.001097, x1 = 0.001438	1.061	0.95	0.856	0.778	0.711
x2 = 0.001451, x1 = 0.0007192	1.043	0.931	0.838	0.759	0.693
x2 = 0.001463, x1 = 0.001437	1.067	0.954	0.861	0.782	0.716
x2 = 0.001808, x1 = 0.001437	1.072	0.959	0.865	0.787	0.72
x2 = 0.001813, x1 = 0.000719	1.047	0.936	0.842	0.764	0.697
x2 = 0.002175, x1 = 0.0007187	1.053	0.941	0.847	0.768	0.702
x2 = 0.002192, x1 = 0.001436	1.076	0.963	0.87	0.791	0.725
x2 = 0.002537, x1 = 0.0007185	1.057	0.946	0.851	0.773	0.706
x2 = 0.002557, x1 = 0.001436	1.082	0.968	0.874	0.796	0.729

CCCC[n+]1ccn(C)c1.[Br-] + [Cl-].[Li+] + O
298.15 K, 100 kPa
Details	viscosity [mPa·s]
x2 = 0, x3 = 0.9487	2.21
x2 = 0.008492, x3 = 0.9402	2.41
x2 = 0.01695, x3 = 0.9318	2.56
x2 = 0.02496, x3 = 0.9237	2.73
x2 = 0.02656, x3 = 0.9221	2.81
x2 = 0.03322, x3 = 0.9155	3
x2 = 0.0408, x3 = 0.9079	3.21

CCCC[n+]1ccn(C)c1.[Br-] + CCOCCO
viscosity [mPa·s], 100 kPa
Details	x1 = 0.1002	x1 = 0.2001	x1 = 0.3007	x1 = 0.3992	x1 = 0.5001	x1 = 0.5986	x1 = 0.7001	x1 = 0.8005	x1 = 0.9002	x1 = 1
298.15 K	12.5	42.5	88.9	139	191	253	356	541	880	1451
303.15 K	8.68	25.6	51.1	78.5	108	142	197	295	480	837
308.15 K	6.44	17.4	32.8	50	67	87.1	117	171	278	506
313.15 K	5.02	12.5	23	34.3	45.3	58.1	75.6	108	171	330

CCCC(C)O (centres undefined) + CCCCCC[n+]1ccn(C)c1.O=[N+]([O-])[O-]
Details	viscosity [mPa·s]
323.15 K, 100 kPa, x2 = 0	1.39

CC[n+]1ccn(C)c1.[Cl-] + OCC(O)CO
Details	viscosity [mPa·s]
303.15 K, 100 kPa, x1 = 0.333	126.9
313.15 K, 101 kPa, x1 = 0.667	135.5

CC[n+]1ccn(C)c1C.F[B-](F)(F)F + CO
101.3 kPa
Details	viscosity [mPa·s]
293.15 K, x1 = 0.1313	1.92
298.15 K, x1 = 0.09153	1.35
298.15 K, x1 = 0.2607	3.98
303.15 K, x1 = 0.03641	0.859
303.15 K, x1 = 0.1313	1.64
308.15 K, x1 = 0.06083	1.022
308.15 K, x1 = 0.09153	1.167
308.15 K, x1 = 0.1313	1.51
313.15 K, x1 = 0.1848	1.92
318.15 K, x1 = 0.3768	5.52
323.15 K, x1 = 0.03641	0.664
323.15 K, x1 = 0.09153	0.947
323.15 K, x1 = 0.1313	1.21
328.15 K, x1 = 0.09153	0.874
328.15 K, x1 = 0.1313	1.132
328.15 K, x1 = 0.3768	4.55
333.15 K, x1 = 0.1313	1.065
333.15 K, x1 = 0.1848	1.41

[Cl-].c1ccc(C[P+](c2ccccc2)(c2ccccc2)c2ccccc2)cc1 + OCCOCCO
101 kPa, x2 = 0.875
Details	electrical conductivity [S/m]	viscosity [mPa·s]
313.15 K	0.0935	64.2
353.15 K	0.212	17.1

CCCCCCCCCC[N+](CC)(CC)CCCCCCCCCC.[Br-] + O
electrical conductivity [S/m]
Details	290.55 K	290.75 K	290.85 K	292.05 K	301.55 K	303.15 K	304.55 K	306.65 K	311.65 K
100 kPa, x1 = 1.08e-06	–	–	–	–	–	0.0029	–	–	–
101 kPa, x1 = 0.0004187	0.031	0.033	0.034	0.053	0.079	–	0.082	0.084	0.089

CC[n+]1ccn(C)c1.[Cl-] + CC#N
Details	viscosity [mPa·s]
373 K, 100 kPa, x2 = 0.284	12

NCC(O)CO (centres undefined) + CC[n+]1ccn(C)c1.[Cl-]
101 kPa, x2 = 0.667
Details	viscosity [mPa·s]
298.15 K	321
303.15 K	230
313.15 K	125.5
323.15 K	70.2
333.15 K	44.6

CC[n+]1ccn(C)c1.[Cl-] + CC[n+]1ccn(C)c1.F[B-](F)(F)F
Details	viscosity [mPa·s]
293 K, 101 kPa, x1 = 0.2627	92.4

CCCC[N+](CCCC)(CCCC)CCCC.[Cl-] + CC[C@H](C)[C@H](N)C(=O)O
electrical conductivity [S/m], 100 kPa
Details	313.15 K	323.15 K	333.15 K	343.15 K	353.15 K
x1 = 0.8889	0.0522	0.0655	0.0876	0.1	0.119
x1 = 0.9	0.0263	0.045	0.0615	0.0789	0.105
x1 = 0.9091	0.0364	0.0499	0.072	0.0843	0.111
